Test system: synthesis of PGI2
Experiment: Prostacyclin stimulation in whole blood (collagen-induced PGI2 formation, 6-keto-PGF1 alpha by radioimmunoassay)
Format: cell-based
Source text: The 1,4-dihydropyridines to be used according to the invention also stimulate the synthesis of PGI2. In contrast to thromboxane, which has a vasoconstricting action and initiates platelet aggregation, PGI^2 has a vasodilating action and inhibits platelet aggregation.
The formation of PGI2 can be induced in whole blood by collagen. The endoperoxides formed in platelets are probably converted into PGI2 by […]. The stable end product of the PGI2 conversion, 6-keto-PGF1 α, is determined radioimmunologically.

Row | Compound | Stimulation (%) (prostacyclin stimulation)
1 | CC1=C(C(=O)OCCCc2cccnc2)C(c2ccc(CO)cc2)C(C(=O)OCCCc2cccnc2)=C(C)N1 [Example 1, Di-3-(pyrid-3-yl)-propyl 1,4-dihydro-4-(4-hydroxymethylphenyl)-2,6-dimethylpyridine-3,5-dicarboxylate] | 158%
2 | CC1=C(C(=O)OCCCc2cccnc2)CC(C(=O)OCCCc2cccnc2)=C(C)N1 [Example 4, Di-3-(pyrid-3-yl)-propyl 1,4-dihydro-2,6-dimethylpyridine-3,5-dicarboxylate] | ~ 50%
3 | COC(=O)C1C(C(=O)OCCCc2cccnc2)=C(C)NC(C)=C1C(=O)OCCCc1cccnc1 [Example 5, 4-Methyl 3,5-di-3-(pyrid-3-yl)-propyl 1,4-dihydro-2,6-dimethyl-pyridine-3,4,5-tricarboxylate] | 100%
4 | CC1=C(C(=O)OCCCc2cccnc2)C(c2ccc(C(=O)NCc3cccnc3)cc2)C(C(=O)OCCCc2cccnc2)=C(C)N1 [Example 10, Di-3-(pyrid-3-yl)-propyl 1,4-dihydro-2,6-dimethyl-4-[4-N-(pyrid-3-ylmethyl)-carbamoylphenyl]-pyridine-3,5-dicarboxylate] | ~ 50%
5 | CC1=C(C(=O)OCCCc2cccnc2)C(c2ccc(C(=O)NCc3ccco3)cc2)C(C(=O)OCCCc2cccnc2)=C(C)N1 [Example 11, Di-3-(pyrid-3-yl)-propyl 4-[4-N-(2-furylmethyl)-carbamoylphenyl]-1,4-dihydro-2,6-dimethyl-pyridine-3,5-dicarboxylate] | ~ 100%
